We go through 2 molecules from article PMC5861220, “The Cytochrome P450-Mediated Metabolism Alternation of Four Effective Lignans From Schisandra chinensis in Carbon Tetrachloride-Intoxicated Rats and Patients With Advanced Hepatocellular Carcinoma” (Frontiers in Pharmacology, 2018).

In one data set the test system is P-glycoprotein (P-gp). In words: P-gp substrate assessment from Caco-2 transport (Papp and ER). It counts as in vitro ADME. Particulars: Caco-2 cell monolayer, 5, 10 and 50 μM. As for the experimental part:
(§1) Caco-2 cell (passage 38) was used in the transport experiments. Cells were seeded on polycarbonate filters (12 mm diameter, pore size […]) at 1 × 10^5/cm^2. The cell monolayer was formed 21 days post seeding when the transepithelial electrical resistance (TEER) was above 1,000 Ω• cm^2. Three concentration levels (5, 10, and 50 μM) were set for the four schisandra lignans in the study. After preincubation for 1 h at 37°C, the solution of the four lignans was respectively added to the apical (0.4 mL) or basolateral (0.6 mL) chamber for absorptive (AP → BL) and secretive (BL → AP) permeability test. At the specified timepoints (0.5, 1, 1.5 and 2 h), 50 μL samples (n = 3) were withdrawn from receiver chamber, and meanwhile, 50 μL fresh buffer was added. The four lignans were determined by HPLC-MS method.
The apparent permeability coefficient (Papp) in the Caco-2 cell was calculated by the formula Papp = (ΔQ/Δt)/AC0, where ΔQ/Δt is the transport rate (nmol/s), which remained approximately constant in time, A is the well membrane area (0.6 cm^2), and C0 is the initial concentration of the four lignans (μM). The efflux rate (ER) was calculated by the formula ER = Papp (BL → AP)/Papp(AP → BL).

Data set [1] in a line: Transport across Caco-2 cell monolayer. It counts as in vitro ADME. Particulars: human, Caco-2; for efflux ratio at 2 h, 5 μM / efflux ratio at 2 h, 10 μM / efflux ratio at 2 h, 50 μM: ER = Papp (BL → AP)/Papp(AP → BL). As for the experimental part:
as §1
The efflux rate (ER) was calculated by the formula ER = Papp (BL → AP)/Papp(AP → BL).

For `COc1cc2c(c(OC)c1OC)-c1c(cc(OC)c(OC)c1OC)C[C@H](C)[C@@H](C)C2` [Deoxyshisandrin, deoxyshisandrin], the “P-glycoprotein (P-gp) substrate classification according to Papp and ER” value in the data set with P-glycoprotein (P-gp) was “some efflux trend”. In data set [1], the Papp A→B at 2 h, 5 μM turned out to be 1.17 ± 0.13 ×10⁻⁶ cm/s; the Papp B→A at 2 h, 5 μM was 1.67 ± 0.14 ×10⁻⁶ cm/s; the efflux ratio at 2 h, 5 μM was found to be 1.42; the Papp A→B at 2 h, 10 μM is 1.16 ± 0.04 ×10⁻⁶ cm/s. In addition, in data set [1], the Papp B→A at 2 h, 10 μM was determined as 1.52 ± 0.16 ×10⁻⁶ cm/s; the efflux ratio at 2 h, 10 μM was 1.31; the Papp A→B at 2 h, 50 μM came to 1.24 ± 0.17 ×10⁻⁶ cm/s; the Papp B→A at 2 h, 50 μM came out at 1.71 ± 0.51 ×10⁻⁶ cm/s. In addition, the efflux ratio at 2 h, 50 μM in data set [1] was 1.38.

With `COc1cc2c(c(OC)c1OC)-c1c(cc(OC)c(OC)c1OC)C[C@](C)(O)[C@@H](C)C2` [Schisandrin, schisandrin], in data set [1], the apical-to-basolateral permeability (Papp A→B) at 2 h, 5 μM worked out at 2.15 ± 0.56 ×10⁻⁶ cm/s; the Papp B→A at 2 h, 5 μM turned out to be 3.31 ± 0.59 ×10⁻⁶ cm/s; the efflux ratio at 2 h, 5 μM was 1.54; the Papp A→B at 2 h, 10 μM was 1.86 ± 0.17 ×10⁻⁶ cm/s. In addition, in data set [1], the Papp B→A at 2 h, 10 μM is 2.03 ± 0.11 ×10⁻⁶ cm/s; the efflux ratio at 2 h, 10 μM was 1.09; the apparent permeability from apical to basolateral (Papp A→B) at 2 h, 50 μM turned out to be 1.93 ± 0.2 ×10⁻⁶ cm/s; the Papp B→A at 2 h, 50 μM was found to be 2.12 ± 0.17 ×10⁻⁶ cm/s. Further, the efflux ratio at 2 h, 50 μM in data set [1] came out at 1.1.
